Consider one molecule from patent US5889048A, “Methods and compositions for treating defective cell functions” (priority 1994, dated 1999).

The subject of this experiment is L-41 cell line. The experiment can be described thus: cytostatic activity on reinoculated tumor culture of L-41 cell line (protein content, % cell growth inhibition). The format is cell-based. As for the experimental part:
The […] activity of a pharmaceutical formulation of the invention was tested with using reinoculated tumor cell cultures.
In the studies a reinoculated leukocyte culture of L-41 strain was used.
The cell culture was incubated by the conventional method. The inoculate density was 1-10^5 cells in 1 ml of nutrient medium. […] On day 2 from the start of the study, a biological activity of the proposed formulation was estimated using 4-point scale. The assays for protein in cultures were performed by the Louri method modified by the Oyama and Eagle.
The cytostatic activity of the proposed formulation was evaluated as the % inhibition of cell culture growth by the suppression of protein production.
According to the existing standard techniques for screening the antitumor preparations, a pharmaceutical formulation is recognized to be efficient when its ED50 is less or equal to 100 μg/ml.
Comparison of biologic activity of the proposed pharmaceutical
reinoculated tumor culture of L-41 cell line

[1] abbreviates: mercury dichloride alone 1.0 μg/ml.
The mark [2] stands for this setting: mercury dichloride alone 3.3 μg/ml.
Setting [3] is: mercury dichloride alone 5.0 μg/ml.
Where [4] appears, read: mercury dichloride alone 8.0 μg/ml.

Consider `[Cl][Hg][Cl]` [Mercury dichloride, mercury dichloride], for which the ED50 entry (L-41 culture, Table 1 data) is “about 8 μg/ml”. Moreover, the “% of cell growth inhibition” value stood at 1.2% under setting [1], 5.1% under setting [2], 12.9% under setting [3] and 47.6% under setting [4]. Besides, the Protein content worked out at 390.3 ± 2.6 µg/mL under setting [1], 279.0 ± 27.3 µg/mL under setting [2], 256.0 ± 5.2 µg/mL under setting [3] and 154.0 ± 5.0 µg/mL under setting [4]. Under “preliminary experiment”, the “ED50 (preliminary experiment)” value is under 10 µg/mL.
